Article PMC5090206, “Fluselenamyl: A Novel Benzoselenazole Derivative for PET Detection of Amyloid Plaques (Aβ) in Alzheimer’s Disease” (Scientific Reports, 2016)

How the values were obtained:
cortical Aβ plaques = cortical Aβ plaques (Homo sapiens, UniProt P05067); experiment: In vitro autoradiography of AD frontal cortex sections; format: binding
Protocol: Literature precedents indicate the presence of at least three different binding sites, characterized as BS1, BS2 and BS3 on the Aβ fibrils in vitro[24] and extracts from AD homogenates. […] Overall, these investigations indicate that different PET tracers may be beneficial to better understand Aβ pathophysiology in vivo. […] Further, to evaluate ability of [^18F]-9 for labeling Aβ in autopsy confirmed human brain sections, autoradiography and immunohistochemical correlations were also performed.
Scientific Reports Version of August 4, 2016
Autoradiography of Human Brain Sections and Immunohistochemistry Correlation Autoradiography and immunohistochemistry (IHC) were performed as previously described14 with minor modifications. Briefly, a sample of frozen AD frontal cortex was sectioned using a TBS Minotome PLUS Cryostat set at a thickness of 12 microns. The tissue sections were thaw-mounted onto Superfrost Plus (Fisherbrand 12-550-15) microscope slides and allowed to air dry for 10–15 min prior to storage at -80 °C. […]
Autoradiography images were obtained on GE Typhoon System FLA-9500 (Tokyo, Japan) at 25 µm resolution. […] IHC images were obtained on a NanoZoomer 2.0-HT System ([…]) at 20x resolution with DAPI and TRITC fluorescence filters using NDP.scan 2.5 software ([…]). […]

Aβ plaques = Aβ plaques (Homo sapiens, UniProt P05067); experiment: Ex vivo autoradiography of APP/PS1 Tg and WT mouse brain sections; format: in vivo; details: for target/reference count intensity ratio (mean ± SD): 30 min post injection, cortex and amygdala vs hypothalamus; for target/reference count intensity ratio: brain stem as reference region
Protocol: Uptake in brain and other critical organs was analyzed in terms of percent injected dose per gram of the tissue (%ID/g) SI Table 1. For in vivo imaging of Aβ plaques, the basic pharmacokinetic model in normal brains involves a high initial penetration of the agent, accompanied by facile clearance due to lack of a binding target. […] For comparison, brain uptake ratios of [^18F]-AV-45 (2 min/2 h) and [^18F]-Florbetaben (2 min/4 h) in normal mice are 4.07 (%ID/g (brain): 2 min: 7.33 ± 1.54; 2 h: 1.80 ± 0.07; 7.33/1.80; 4.07)[10] and 5.0 (%ID/g (brain): 2 min: 4.77; 4 h: 0.95; 4.77/0.95; 5.02)[46], respectively. […] For an agent to be able to serve as an Aβ-imaging agent, literature precedents indicate that brain uptake ratio (%ID/g; the earliest time–point; 2–5 min to that of the latest time point; typically for carbon-11; 30–60 min; and F-18, 2 h) of 3.5 or above could be considered as a benchmark for ability of a given agent to cross the blood-brain barrier. Additionally, the brain uptake of a given imaging agent is also a net function of several components, such as cerebral regional blood flow, BBB permeability, plasma radiotracer concentration, and free fractions of the radiotracer in plasma and in the brain. Furthermore, the lipophilicity of a given compound also reflects a critical physicochemical trait for neuroimaging radiotracers due to its direct relationship to membrane permeability, solubility in water, and entropic contribution to binding. Literature precedents indicate that lipophilic drugs readily cross the BBB, although other chemical characteristics, including the number of hydrogen bonds, molecular weight, polar surface area and molecular size are also known to be critical traits for passive transport. […] Conversely, radiotracers that are too lipophilic can also bind plasma proteins, undergo fast metabolism, while also contributing to high nonspecific binding, such as white matter. […] For ROI analysis of the PET signal in brain section autoradiograms of transgenic mouse (Fig. 7A) and its WT counterpart (Fig. 7D), we used measured count densities in cortex and amygdala target regions and compared them with that of hypothalamus as reference region with a low plaque density as determined by Aβ immunostaining (Fig. 7B). […] Since brain stem was also devoid of plaques, we also analyzed the above target regions using brain stem as a reference region, and observed target/reference value in the transgenic to be 0.89 ± 0.1 compared to 0.45 ± 0.07 in the WT mouse. […]

Lipophilicity (log P) = format: physicochemical; details: octanol/water

Chain of Aβ plaques (P05067 672-711 limits assumed): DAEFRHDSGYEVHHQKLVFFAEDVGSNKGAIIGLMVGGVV
Chain of cortical Aβ plaques (P05067 672-711 limits assumed): as above

| SMILES | effect on [18F]-9 binding in autoradiography (cortical Aβ plaques; 1 μM cold ligand with 2 nM [18F]-9) | target/reference count intensity ratio (mean ± SD) (Aβ plaques; 24 months APP/PS1 transgenic mouse) | target/reference count intensity ratio (Aβ plaques; APP/PS1 transgenic mouse) | target/reference count intensity ratio (mean ± SD) (Aβ plaques; WT control mouse) | target/reference count intensity ratio (Aβ plaques; WT mouse) | labeling in autoradiography (cortical Aβ plaques; 2 nM, 60 min, AD frontal cortex sections (12 μm)) | logP (Lipophilicity (log P)) |
| --- | --- | --- | --- | --- | --- | --- | --- |
| CN(C)c1ncc(/C=C\c2nc3cc(OCCF)ccc3[se]2)cn1 [compound 5, (Z)-5-(2-(5-(2-fluoroethoxy)benzo[d][1,3]selenazol-2-yl)vinyl)-N,N-dimethylpyrimidin-2-amine] | binding was inhibited |  |  |  |  |  |  |
| CN(C)c1ncc(/C=C\c2nc3cc(OCC[18F])ccc3[se]2)cn1 [[^18F]-9] |  | 1.88 ± 0.22 | 0.89 ± 0.1 | 0.96 ± 0.12 | 0.45 ± 0.07 | showed labeling of cortical Aβ plaques | 1.28 |
